Source: the NIST ThermoML archive (doi:10.1021/je800999s)
± gives the expanded uncertainty stated by the source.

Test: molar heat capacity at constant pressure
Conditions: 101 kPa, Liquid, Large sample (1 g) DSC

| SMILES | molar heat capacity at constant pressure (303.15 K) [J/K/mol] | molar heat capacity at constant pressure (308.15 K) [J/K/mol] | molar heat capacity at constant pressure (313.15 K) [J/K/mol] | molar heat capacity at constant pressure (318.15 K) [J/K/mol] | molar heat capacity at constant pressure (323.15 K) [J/K/mol] | molar heat capacity at constant pressure (328.15 K) [J/K/mol] | molar heat capacity at constant pressure (333.15 K) [J/K/mol] | molar heat capacity at constant pressure (338.15 K) [J/K/mol] | molar heat capacity at constant pressure (343.15 K) [J/K/mol] | molar heat capacity at constant pressure (348.15 K) [J/K/mol] | molar heat capacity at constant pressure (353.15 K) [J/K/mol] |
| --- | --- | --- | --- | --- | --- | --- | --- | --- | --- | --- | --- |
| O=S1(=O)CCCC1 [sulfolane] | 182 ± 8 | 184 ± 8 | 185 ± 8 | 186 ± 8 | 188 ± 8 | 189 ± 8 | 191 ± 8 | 193 ± 8 | 194 ± 8 | 197 ± 8 | 199 ± 8 |
| O=CN1CCOCC1 [N-formylmorpholine] | 185 ± 8 | 186 ± 8 | 188 ± 8 | 189 ± 8 | 191 ± 8 | 193 ± 8 | 195 ± 8 | 197 ± 8 | 200 ± 9 | 201 ± 9 | 202 ± 9 |
| CN1CCCC1=O [N-methylpyrrolidone] | 166 ± 7 | 167 ± 7 | 168 ± 7 | 169 ± 7 | 170 ± 7 | 172 ± 7 | 174 ± 7 | 175 ± 7 | 176 ± 7 | 177 ± 8 | 178 ± 8 |
| COCCOCCOCCOC [2,5,8,11-tetraoxadodecane] | 359 ± 15 | 364 ± 15 | 366 ± 16 | 368 ± 16 | 370 ± 16 | 371 ± 16 | 373 ± 16 | 375 ± 16 | 379 ± 16 | 381 ± 16 | 382 ± 16 |
